Source: patent EP0074929A1, “Polycyclic polyazaheterocycles, process for their preparation and pharmaceutical preparations containing them” (CIBA-GEIGY AG, priority 1981, dated 1983)
Where a name gives a salt, the structure may show the parent alone. Read-outs that look alike come from different tables or passages of the source.

Experiments:
[1] = test system: isolierten Meerschweinchenvorhof; conditions: known antidepressants, stated as contrast; cited from earlier work
[2] = test system: durch Tetrabenazin induzierten Ptosis; experiment: Antagonism of tetrabenazine-induced ptosis in the rat (Rubin et al.); type: in vivo, Ratte
Method: (§1) Die Verbindungen der allgemeinen Formel I und ihre Säureadditionssalze besitzen wertvolle psychopharmakologische Eigenschaften. Insbesondere wirken sie antagonistisch gegenüber der durch Reserpin induzierten Hypothermie, z.B. bei intraperitonealer oder peroraler Applikation an der Ratte, [vgl. Benz und Waser, Arzneimittelforsch. 21 (5) 654 (1971)] im Dosenbereich von 10 bis 100 mg/kg, und gegenüber der durch Tetrabenazin induzierten Ptosis bei intraperitonealer oder peroraler Applikation an der Ratte [vgl. Rubin et al., J. Pharmacol. exptl. Ther. 120, 125 (1957)] im Dosenbereich von 3 bis 100 mg/kg. Beispielsweise beträgt die ED50 von 4,5-Dihydro-2-[(dimethylamino)-methyl]-5-phenyl-1,2,4-triazolo[1,5-a]chinoxalin-hydrochlorid im zweitgenannten Test 3-10 mg/kg per os und 10 mg/kg i.p.. Im Sozialkonflikt-Test an der Ratte zeigen die Verbindungen der allgemeinen Formel I, wie die vorgenannte, anxiolytische Wirkung nach peroraler Verabreichung von Dosen ab 1 mg/kg. […] Die Toxizität der Verbindungen der allgemeinen Formel I ist im Vergleich zu den erwünschten pharmakologischen Wirkungen niedrig. Diese Eigenschaften kennzeichnen die Verbindungen der allgemeinen Formel I als Antidepressiva und Anxiolytica, die zur Behandlung von Depressionen Verwendung finden können.

[3] = test system: isolierten Meerschweinchenvorhof; experiment: Isolated guinea pig atrium, inotropic and chronotropic effect; parameters: species or system Meerschweinchen
Sozialkonflikt-Test = experiment: Social conflict test in the rat; type: in vivo, Ratte; conditions: po, peroral, lowest dose with anxiolytic effect, read-out: anxiolytische Wirkung nach peroraler Verabreichung von Dosen ab
Method: as §1

| Compound | chronotrope Wirkung [1] | inotrope Wirkung [1] | ED50 ([2]; ip) [mg/kg] | ED50 ([2]; po, per os) [mg/kg] | chronotrope Wirkung [3] | inotrope Wirkung [3] | minimal effective dose (Sozialkonflikt-Test) [mg/kg] |
| --- | --- | --- | --- | --- | --- | --- | --- |
| CN(C)CCCN1c2ccccc2CCc2ccccc21 [Imipramin] | positiv chronotropen | eher negativ inotropen | – | – | – | – | – |
| CN(C)Cc1nc2n(n1)-c1ccccc1N(c1ccccc1)C2 [4,5-Dihydro-2-[(dimethylamino)-methyl]-5-phenyl-1,2,4-triazolo[1,5-a]chinoxalin-hydrochlorid] | – | – | 10 | 3 to 10 | schwach negativ chronotrope | schwach positiv inotrope | ≥ 1 |
